According to patent US10323022B2, “Pyrrolidinyl urea, pyrrolidinyl thiourea and pyrrolidinyl guanidine compounds as TrkA kinase inhibitors” (Array BioPharma Inc., priority 2011, dated 2019):
Where a name gives a salt, the structure may show the parent alone.

Molecular target: TrkA (Homo sapiens (Human), UniProt P04629)
Assay: TrkA Omnia Assay
Assay type: biochemical
Conditions: averaged IC50; 20 nM enzyme, 500 μM ATP, 10 μM peptide substrate
Outline: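 Continuous fluorescent kinase read-out (ex 360 nm, em 485 nm) over 70 min, with initial rates fitted to 4- or 5-parameter logistic curves for IC50. Final conditions: 500 μM ATP, 10 μM Omnia Tyr Peptide #4, 20 nM TrkA, MOPS pH 7.5 buffer with MgCl2 and Triton X-100; enzyme and compound preincubated 10 min at ambient temperature.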

Chain of TrkA (P04629 33-796): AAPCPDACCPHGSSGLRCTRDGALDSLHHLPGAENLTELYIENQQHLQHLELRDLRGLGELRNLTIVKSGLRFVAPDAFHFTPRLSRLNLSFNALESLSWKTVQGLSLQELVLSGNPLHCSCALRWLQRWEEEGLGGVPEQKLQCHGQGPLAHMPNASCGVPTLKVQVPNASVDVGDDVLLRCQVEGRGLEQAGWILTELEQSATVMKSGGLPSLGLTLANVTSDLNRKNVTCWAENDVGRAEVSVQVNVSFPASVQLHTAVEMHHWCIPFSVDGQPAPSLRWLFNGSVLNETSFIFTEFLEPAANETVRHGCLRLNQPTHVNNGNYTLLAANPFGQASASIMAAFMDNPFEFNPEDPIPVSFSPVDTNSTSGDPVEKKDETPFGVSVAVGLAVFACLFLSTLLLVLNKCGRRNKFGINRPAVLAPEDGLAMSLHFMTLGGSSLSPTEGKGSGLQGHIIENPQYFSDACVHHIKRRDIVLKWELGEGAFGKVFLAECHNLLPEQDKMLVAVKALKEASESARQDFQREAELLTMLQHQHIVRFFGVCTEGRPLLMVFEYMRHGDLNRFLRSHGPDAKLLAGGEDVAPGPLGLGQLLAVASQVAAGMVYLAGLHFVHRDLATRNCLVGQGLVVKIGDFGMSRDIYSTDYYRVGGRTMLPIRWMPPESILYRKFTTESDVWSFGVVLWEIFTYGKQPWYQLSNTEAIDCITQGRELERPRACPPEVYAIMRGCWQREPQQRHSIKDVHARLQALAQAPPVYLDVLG

Row | Compound | IC50 [µM]
1 | COCCN1C[C@@H](NC(=O)Nc2c3c(nn2-c2ccccc2)CCC3)[C@H](c2cncc(F)c2)C1 (relative stereo) [Example 341, 1-(trans-4-(5-fluoropyridin-3-yl)-1-(2-methoxyethyl)pyrrolidin-3-yl)-3-(2-phenyl-2,4,5,6-tetrahydrocyclopenta[c]pyrazol-3-yl)urea] | 0.1 to 1
2 | COCCN1C[C@@H](NC(=O)Nc2cc(COC3CCNCC3)nn2-c2ccccc2)[C@H](c2ccc(F)c(F)c2)C1 [Example 589, 1-((3S,4R)-4-(3,4-difluorophenyl)-1-(2-methoxyethyl)pyrrolidin-3-yl)-3-(1-phenyl-3-((piperidin-4-yloxy)methyl)-1H-pyrazol-5-yl)urea dihydrochloride] | 0.1 to 1
3 | COCCN1C[C@@H](NC(=O)Nc2cc(-c3ccc(OC)cc3)nn2C)[C@H](c2ccccc2)C1 [Example 108, 1-((3S,4R)-1-(2-methoxy-ethyl)-4-phenylpyrrolidin-3-yl)-3-(3-(4-methoxy-phenyl)-1-methyl-1H-pyrazol-5-yl)urea] | < 0.1
4 | Cc1c(-c2cnn(C)c2)nn(-c2ccccc2)c1NC(=O)N[C@H]1CN(CC(F)(F)F)C[C@@H]1c1ccccc1 [Example 269, 1-(1′,4-dimethyl-1-phenyl-1H,1′H-3,4′-bipyrazol-5-yl)-3-((3R,4S)-4-phenyl-1-(2,2,2-trifluoroethyl)pyrrolidin-3-yl)urea] | < 0.1
5 | COCCN1C[C@@H](NC(=O)Nc2c(C)c(OCCN3CCN(C)CC3)nn2-c2ccccc2)[C@H](c2ccc(F)c(F)c2)C1 [Example 551, 1-((3S,4R)-4-(3,4-difluorophenyl)-1-(2-methoxyethyl)pyrrolidin-3-yl)-3-(4-methyl-3-(2-(4-methylpiperazin-1-yl)ethoxy)-1-phenyl-1H-pyrazol-5-yl)urea trihydrochloride] | < 0.1
6 | COCCN1C[C@@H](NC(=O)Nc2c(C)c(-c3cnn(C)c3)nn2-c2cccc(F)c2)[C@H](c2ccc(F)c(F)c2)C1 [Example 313, 1-((3S,4R)-4-(3,4-difluorophenyl)-1-(2-methoxyethyl)pyrrolidin-3-yl)-3-(1-(3-fluorophenyl)-1′,4-dimethyl-1H,1′H-[3,4′-bipyrazol]-5-yl)urea] | < 0.1
7 | COCCN1C[C@@H](NC(=O)Nc2c(Br)c(COC3CCN(C(=O)OC(C)(C)C)CC3)nn2-c2ccccc2)[C@H](c2ccc(F)c(F)c2)C1 [Example 579, tert-butyl 4-((4-bromo-5-(3-((3S,4R)-4-(3,4-difluorophenyl)-1-(2-methoxyethyl)pyrrolidin-3-yl)ureido)-1-phenyl-1H-pyrazol-3-yl)methoxy)piperidine-1-carboxylate] | < 0.1
8 | COCCN1C[C@@H](NC(=O)Nc2c(C)c(-c3cnn(CCO)c3)nn2-c2ccccc2)[C@H](c2ccc(F)c(F)c2)C1 [Example 350, 1-((3S,4R)-4-(3,4-difluorophenyl)-1-(2-methoxyethyl)pyrrolidin-3-yl)-3-(1′-(2-hydroxyethyl)-4-methyl-1-phenyl-1H,1′H-[3,4′-bipyrazol]-5-yl)urea] | < 0.1
9 | COCCN1C[C@@H](NC(=O)Nc2c(Br)c(-c3cnn(C)c3)nn2-c2ccccc2)[C@H](c2cncc(F)c2)C1 [Example 440, 1-(4-bromo-1′-methyl-1-phenyl-1H,1′H-[3,4′-bipyrazol]-5-yl)-3-((3S,4R)-4-(5-fluoropyridin-3-yl)-1-(2-methoxyethyl)pyrrolidin-3-yl)urea] | < 0.1
10 | COCCN1C[C@@H](NC(=O)Nc2c(C)c(-c3cn[nH]c3)nn2-c2ccccc2)[C@H](c2ccc(F)c(F)c2)C1 [Example 447] | < 0.1
11 | O=C(Nc1c2c(nn1-c1ccccc1)CCC2)N[C@@H]1CN(CC(F)(F)F)CC1c1cccnc1 (stereo partly drawn) [Example 213, 1-(2-phenyl-2,4,56-tetrahydrocyclopenta[c]pyrazol-3-yl)-3-((trans)-4-(pyridin-3-v)-1-(2,2,2-trifluoroethyl)pyrrolidin-3-yl)urea] | 0.1 to 1
12 | CC[C@H](O)COc1nn(-c2ccccc2)c(NC(=O)N[C@@H]2CN(CCOC)C[C@H]2c2ccc(F)c(F)c2)c1C [Example 360, 1-((3S,4R)-4-(3,4-difluorophenyl)-1-(2-methoxyethyl)pyrrolidin-3-yl)-3-(3-((S)-2-hydroxybutoxy)-4-methyl-1-phenyl-1H-pyrazol-5-yl)urea] | < 0.1
13 | COCCN1C[C@@H](NC(=O)Nc2c(C(N)=O)c(C)nn2-c2ccccc2)[C@H](c2cc(F)cc(F)c2)C1 [Example 626, 5-(3-((3S,4R)-4-(3,5-difluorophenyl)-1-(2-methoxyethyl)pyrrolidin-3-yl)ureido)-3-methyl-1-phenyl-1H-pyrazole-4-carboxamide] | < 0.1
14 | COCCN1C[C@@H](NC(=O)Nc2c(C)c([C@H]3C[C@H](O)C3)nn2-c2ccccc2)[C@H](c2cc(F)cc(F)c2)C1 [Example 457, 1-((3S,4R)-4-(3,5-difluorophenyl)-1-(2-methoxyethyl)pyrrolidin-3-yl)-3-(3-(trans-3-hydroxycyclobutyl)-4-methyl-1-phenyl-1H-pyrazol-5-yl)urea] | < 0.1
15 | COCCN1C[C@@H](NC(=O)Nc2c(C)c(-c3ccccn3)nn2-c2ccccc2)[C@H](c2ccc(F)c(F)c2)C1 [Example 488, 1-((3S,4R)-4-(3,4-difluorophenyl)-1-(2-methoxyethyl)pyrrolidin-3-yl)-3-(4-methyl-1-phenyl-3-(pyridin-2-yl)-1H-pyrazol-5-yl)urea] | < 0.1
16 | COCCN1C[C@@H](NC(=O)Nc2c3c(nn2-c2ccccn2)CCC3)[C@H](c2ccccc2)C1 (relative stereo) [Example 35, 1-(trans-1-(2-methoxyethyl)-4-phenylpyrrolidin-3-yl)-3-(2-(pyridin-2-yl)-2,4,5,6-tetrahydrocyclopenta[c]pyrazol-3-yl)urea] | 1 to 10

More lines, now with the values ahead:

Row | IC50 [µM] | Compound
17 | < 0.1 | CCNC(=O)COc1nn(-c2ccccc2)c(NC(=O)N[C@@H]2CN(CCOC)C[C@H]2c2ccc(F)c(F)c2)c1C [Example 541, 2-((5-(3-((3S,4R)-4-(3,4-difluorophenyl)-1-(2-methoxyethyl)pyrrolidin-3-yl)ureido)-4-methyl-1-phenyl-1H-pyrazol-3-yl)oxy)-N-ethylacetamide]
18 | < 0.1 | COCCN1C[C@@H](NC(=O)Nc2c(C)c(OCCN3CCNCC3)nn2-c2ccccc2)[C@H](c2ccc(F)c(F)c2)C1 [Example 538, 1-((3S,4R)-4-(3,5-difluorophenyvl)-1-(2-methoxyethyl)pyrrolidin-3-yl)-3-(4-methyl-1-phenyl-3-(2-(piperazin-1-yl)ethoxy)-1H-pyrazol-5-yl)urea trihydrochloride]
19 | < 0.1 | COCCN1C[C@@H](NC(=O)Nc2c(C)c(CC(C)(C)O)nn2-c2ccccc2)[C@H](c2ccc(F)c(F)c2)C1 [Example 288, 1-((3S,4R)-4-(3,4-difluorophenyl)-1-(2-methoxyethyl)pyrrolidin-3-yl)-3-(3-(2-hydroxy-2-methylpropyl)-4-methyl-1-phenyl-1H-pyrazol-5-yl)urea]
20 | < 0.1 | COCCN1C[C@@H](NC(=O)Nc2c(Cl)c(CC(C)(C)O)nn2-c2ccccc2)[C@H](c2ccc(F)c(F)c2)C1 [Example 415, 1-(4-chloro-3-(2-hydroxy-2-methylpropyl)-1-phenyl-1H-pyrazol-5-yl)-3-((3S,4R)-4-(3,4-difluorophenyl)-1-(2-methoxyethyl)pyrrolidin-3-yl)urea]
21 | < 0.1 | CCOc1nn(-c2ccccc2)c(NC(=O)N[C@@H]2CN(CCOC)C[C@H]2c2ccc(F)cc2)c1C [Example 147, 1-(3-ethoxy-4-methyl-1-phenyl-1H-pyrazol-5-yl)-3-((3S,4R)-4-(4-fluorophenyl)-1-(2-methoxyethyl)pyrrolidin-3-yl)urea]
22 | < 0.1 | COCCN1C[C@@H](NC(=O)Nc2c(C(F)(F)F)c(OC)nn2-c2ccccc2)[C@H](c2cc(F)cc(F)c2)C1 [Example 606, 1-((3S,4R)-4-(3,5-difluorophenyl)-1-(2-methoxyethyl)pyrrolidin-3-yl)-3-(3-methoxy-1-phenyl-4-(trifluoromethyl)-1H-pyrazol-5-yl)urea]
23 | < 0.1 | COCCN1C[C@@H](NC(=O)Nc2cc(-c3cnc(C)cn3)nn2C)[C@H](c2ccc(F)c(F)c2)C1 [Example 152, 1-((3S,4R)-4-(3,4-difluorophenyl)-1-(2-methoxyethyl)pyrrolidin-3-yl)-3-(1-methyl-3-(5-methylpyrazin-2-yl)-1H-pyrazol-5-yl)urea]
24 | < 0.1 | COCCN1C[C@@H](NC(=O)Nc2c(C)c(OCC(CO)CO)nn2-c2ccccc2)[C@H](c2ccc(F)c(F)c2)C1 [Example 474, 1-((3S,4R)-4-(3,4-difluorophenyl)-1-(2-methoxyethyl)pyrrolidin-3-yl)-3-(3-(3-hydroxy-2-(hydroxymethyl)propoxy)-4-methyl-1-phenyl-1H-pyrazol-5-yl)urea]
25 | < 0.1 | COCCN1C[C@@H](NC(=O)Nc2c(C#N)c(OC)nn2-c2ccccc2)[C@H](c2ccc(F)c(F)c2)C1 [Example 615, 1-(4-cyano-3-methoxy-1-phenyl-1H-pyrazol-5-yl)-3-((3S,4R)-4-(3,4-difluorophenyl)-1-(2-methoxyethyl)pyrrolidin-3-yl)urea]
26 | < 0.1 | COCCCc1nn(-c2ccccc2)c(NC(=O)N[C@@H]2CN(c3cn[nH]c3)C[C@H]2c2ccc(F)c(F)c2)c1C [Example 225, 1-((3S,4R)-4-(3,4-difluorophenyl)-1-(1H-pyrazol-4-yl)pyrrolidin-3-yl)-3-(3-(3-methoxypropyl)-4-methyl-1-phenyl-1H-pyrazol-5-yl)urea]
27 | < 0.1 | COCCN1C[C@@H](NC(=O)Nc2c(C)c(-c3ccn(C)c(=O)c3)nn2-c2ccccc2)[C@H](c2ccc(F)cc2)C1 [Example 532, 1-((3S,4R)-4-(4-fluorophenyl)-1-(2-methoxyethyl)pyrrolidin-3-yl)-3-(4-methyl-3-(1-methyl-2-oxo-1,2-dihydropyridin-4-yl)-1-phenyl-1H-pyrazol-5-yl)urea]
28 | 0.1 to 1 | COCCN1C[C@@H](NC(=O)Nc2cc(C(C)C)nn2-c2ccccc2)[C@H](c2ccccc2F)C1 (relative stereo) [Example 43, trans-1-(4-(2-fluorophenyl)-1-(2-methoxyethyl)pyrrolidin-3-yl)-3-(3-isopropyl-1-phenyl-1H-pyrazol-5-yl)urea]
